Experimental findings from ChEMBL document CHEMBL3297705, “Discovery of 5,6,7,8-tetrahydropyrido[3,4-d]pyrimidine inhibitors of Erk2” (Bioorg Med Chem Lett, 2014) are described below.

For orientation: IC50 means the concentration that inhibits the measured activity by half. Read a high IC50 as lower potency.

Data set [1] addresses T1, Mitogen-activated protein kinase 1 (Homo sapiens, UniProt P28482).
Description: Inhibition of human recombinant N-terminal 6-His-tagged ERK2 expressed in Escherichia coli using S/T17 as substrate after 30 mins by spectrophotometry
The target of data set [2] is T1, Mitogen-activated protein kinase 1. This is another data set of the same source.
Description: Inhibition of ERK2 in human HepG2 cells assessed as P90RSK phosphorylation at Ser380 after 1.5 hrs by fluorescence assay
Data set [3] deals with Cyclin-dependent kinase 2 (Homo sapiens, UniProt P24941).
Description: Inhibition of Cdk2 (unknown origin)
A short description of data set [4]: Plasma protein binding in human. In kind it is ADME, cell-free. The following applies: read-out: PPB (converted).

T1 sequence (P28482 whole entry): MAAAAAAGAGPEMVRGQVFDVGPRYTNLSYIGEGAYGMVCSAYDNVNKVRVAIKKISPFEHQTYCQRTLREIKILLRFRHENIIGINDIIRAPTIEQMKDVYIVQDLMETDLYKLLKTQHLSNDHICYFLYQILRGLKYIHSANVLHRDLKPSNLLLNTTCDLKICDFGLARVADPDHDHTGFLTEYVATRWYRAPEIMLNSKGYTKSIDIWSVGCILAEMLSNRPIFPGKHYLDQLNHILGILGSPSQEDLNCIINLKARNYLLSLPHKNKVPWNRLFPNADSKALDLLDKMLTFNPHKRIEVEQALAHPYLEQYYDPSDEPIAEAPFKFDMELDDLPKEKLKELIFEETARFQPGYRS

Take `CC(C)Nc1ncc2c(n1)CN(C(=O)N[C@H](CN)c1ccc(F)c(Cl)c1)CC2`: the IC50 in data set [1] turned out to be 0.002 µM; in data set [2] it was 0.356 µM.

Take `CC(C)Nc1ncc2c(n1)CN(C(=O)NCc1ccc(Cl)cc1)CC2`: the IC50 in data set [1] was found to be 0.091 µM; in data set [2] it was 2.14 µM.

Consider `C[C@@H](CO)Nc1ncc2c(n1)CN(C(=O)N[C@H](CO)c1ccc(F)c(Cl)c1)CC2`, for which the IC50 was 0.003 µM in data set [1] and 0.473 µM in data set [2].

`CC(C)Nc1ncc2c(n1)CN(C(=O)NCc1cccc(F)c1)CC2`: the IC50 in data set [1] turned out to be 0.093 µM; in data set [2], 2.61 µM.

In the case of `O=C(N[C@H](CO)c1ccc(F)c(Cl)c1)N1CCc2cnc(N[C@H]3CC[C@H](O)C3)nc2C1`, the 50% inhibitory concentration (IC50) in data set [1] amounted to 0.002 µM; in data set [2], 0.198 µM.

As to `CC(C)Nc1ncc2c(n1)CN(C(=O)N[C@@H](c1ccc(F)c(Cl)c1)[C@@H](C)O)CC2`, the results for the IC50 in data set [1] and in data set [2] were 0.003 µM and 0.088 µM, respectively.

In the case of `C[C@@H](NC(=O)N1CCc2cnc(NC3CCOCC3)nc2C1)c1ccc2cc[nH]c2c1`, the IC50 in data set [1] came out at 0.002 µM; in data set [2] it was 0.021 µM; in data set [3], 0.069 µM.

Consider `CC(C)(C)Nc1ncc2c(n1)CN(C(=O)N[C@H](CO)c1ccc(F)c(Cl)c1)CC2`, for which the figures for the IC50 in data set [1] and in data set [2] were 0.041 µM and 3.01 µM, respectively.

Regarding `CC(C)Nc1ncc2c(n1)CN(C(=O)NCc1ccccc1)CC2`, the IC50 in data set [1] came out at 0.283 µM; in data set [2], 4.38 µM.

For `Cn1cc(Nc2ncc3c(n2)CN(C(=O)N[C@H](CO)c2ccc(F)c(Cl)c2)CC3)cn1`, the IC50 in data set [1] stood at 0.006 µM; in data set [2], 0.247 µM.

As for `CC[C@@H](NC(=O)N1CCc2cnc(N[C@@H](C)CO)nc2C1)c1ccc(OC)c(Cl)c1`, the results for the IC50 in data set [1], in data set [2] and in data set [3] were 0.002 µM, 0.014 µM and 0.071 µM, respectively. Moreover, in data set [4], the fraction unbound is 0.081.

For `CNC[C@@H](NC(=O)N1CCc2cnc(NC(C)C)nc2C1)c1ccc(F)c(Cl)c1`, the IC50 in data set [1] worked out at 0.004 µM; in data set [2] it was 0.144 µM.

Turning to `CNc1ncc2c(n1)CN(C(=O)N[C@H](CO)c1ccc(F)c(Cl)c1)CC2`, the IC50 in data set [1] stood at 0.043 µM; in data set [2] it was 2.26 µM.

Regarding `CC[C@@H](NC(=O)N1CCc2cnc(N[C@@H](C)CO)nc2C1)c1ccc(F)c(F)c1`, the IC50 in data set [1] came out at 0.003 µM; in data set [2], 0.051 µM; in data set [3], 0.013 µM. In data set [4], the fraction unbound was 0.226.

For `C[C@@H](NC(=O)N1CCc2cnc(NC3CCOCC3)nc2C1)c1ccc(Cl)c(F)c1`, the 50% inhibitory concentration (IC50) was determined as 0.001 µM in data set [1], 0.012 µM in data set [2] and 0.013 µM in data set [3]. Also, the fraction unbound in data set [4] was 0.095.

For the molecule `CC(=O)Nc1ncc2c(n1)CN(C(=O)N[C@H](CO)c1ccc(F)c(Cl)c1)CC2`, the results for the IC50 in data set [1] and in data set [2] were 0.093 µM and 7.44 µM, respectively.

`CC(C)CNc1ncc2c(n1)CN(C(=O)N[C@H](CO)c1ccc(F)c(Cl)c1)CC2`: the figures for the IC50 in data set [1] and in data set [2] were 0.01 µM and 0.513 µM, respectively.

Turning to `COc1ccc(CNC(=O)N2CCc3cnc(NC(C)C)nc3C2)cc1`, the IC50 in data set [1] came to 0.106 µM; in data set [2], 4.4 µM.

In the case of `Cc1cc(Nc2ncc3c(n2)CN(C(=O)N[C@H](C)c2ccc(Cl)c(Cl)c2)CC3)ccn1`, the figures for the IC50 in data set [1], in data set [2] and in data set [3] were 0.001 µM, 0.023 µM and 0.009 µM, respectively. For the same molecule, the fraction unbound in data set [4] was 0.006.

On to `O=C(N[C@H](CO)c1ccc(Cl)c(Cl)c1)N1CCc2cnc(NC3CCOCC3)nc2C1`, for which the IC50 in data set [1] came to 0.001 µM; in data set [2] it was 0.017 µM; in data set [3], 0.011 µM. Further, the fraction unbound in data set [4] is 0.103.

Consider `CC(C)Nc1ncc2c(n1)CN(C(=O)N[C@H](CNS(C)(=O)=O)c1ccc(F)c(Cl)c1)CC2`, for which the IC50 in data set [1] turned out to be 0.007 µM; in data set [2] it was 0.917 µM.

For the molecule `C[C@@H](CO)Nc1ncc2c(n1)CN(C(=O)N[C@H](C)c1ccc(Cl)c(Cl)c1)CC2`, the IC50 in data set [1] is 0.001 µM; in data set [2], 0.021 µM; in data set [3], 0.104 µM. For the same molecule, the fraction unbound in data set [4] was 0.03.

With `CC(C)Nc1ncc2c(n1)CN(C(=O)N[C@H](CO)c1ccc(F)c(Cl)c1)CC2`, the IC50 worked out at 0.004 µM in data set [1] and 0.16 µM in data set [2].

The molecule `Cc1noc(C)c1Nc1ncc2c(n1)CN(C(=O)N[C@H](CO)c1ccc(F)c(Cl)c1)CC2` had an IC50 in data set [2] of 13.2 µM.

On to `C[C@@H](NC(=O)N1CCc2cnc(Nc3ccnn3C)nc2C1)c1ccc(Cl)c(Cl)c1`, for which the IC50 in data set [1] is 0.001 µM; in data set [2], 0.043 µM; in data set [3] it was 0.023 µM. For the same molecule, the fraction unbound in data set [4] is 0.01.

As for `Cc1cc(Nc2ncc3c(n2)CN(C(=O)N[C@H](CO)c2ccc(F)c(Cl)c2)CC3)ccn1`, the concentration for half-maximal inhibition (IC50) turned out to be 0.007 µM in data set [1] and 0.445 µM in data set [2].

Turning to `CC(C)Nc1ncc2c(n1)CN(C(=O)NCc1cccc(Cl)c1)CC2`, the half-inhibitory concentration (IC50) in data set [1] is 0.089 µM; in data set [2], 1.86 µM.

As for `CC[C@@H](NC(=O)N1CCc2cnc(N[C@@H](C)CO)nc2C1)c1ccc(Cl)c(Cl)c1`, the results for the IC50 in data set [1], in data set [2] and in data set [3] were 0.002 µM, 0.023 µM and 0.012 µM, respectively. In data set [4], the fraction unbound was 0.025.

Take `C[C@@H](NC(=O)N1CCc2cnc(Nc3cnn(C)c3)nc2C1)c1ccc(Cl)c(Cl)c1`: the results for the IC50 in data set [1], in data set [2] and in data set [3] were 0.001 µM, 0.035 µM and 0.004 µM, respectively. Moreover, in data set [4], the fraction unbound was 0.018.

As to `CC(C)Nc1ncc2c(n1)CN(C(=O)NCc1ccc(F)cc1)CC2`, the values for the half-maximal inhibitory concentration (IC50) in data set [1] and in data set [2] were 0.069 µM and 6.62 µM, respectively.

For the molecule `CC[C@H](O)[C@@H](NC(=O)N1CCc2cnc(NC(C)C)nc2C1)c1ccc(F)c(Cl)c1`, the IC50 amounted to 0.002 µM in data set [1] and 0.108 µM in data set [2].

As for `CC(C)Nc1ncc2c(n1)CN(C(=O)NCc1ccc(Cl)c(F)c1)CC2`, the IC50 came to 0.081 µM in data set [1] and 1.63 µM in data set [2].

In the case of `O=C(N[C@H](CO)c1ccc(F)c(Cl)c1)N1CCc2cnc(NC3CCCC3)nc2C1`, the values for the IC50 in data set [1] and in data set [2] were 0.004 µM and 0.33 µM, respectively.

`C[C@@H](NC(=O)N1CCc2cnc(N[C@H]3CCO[C@@H](CO)C3)nc2C1)c1ccc(Cl)c(Cl)c1`: the values for the IC50 in data set [1], in data set [2] and in data set [3] were 0.002 µM, 0.007 µM and 0.002 µM, respectively.

With `O=C(N[C@H](CO)c1ccc(F)c(Cl)c1)N1CCc2cnc(NCCO)nc2C1`, the IC50 in data set [1] is 0.009 µM; in data set [2], 2.45 µM.

As to `COC[C@@H](NC(=O)N1CCc2cnc(NC(C)C)nc2C1)c1ccc(F)c(Cl)c1`, the IC50 in data set [1] was 0.011 µM; in data set [2], 0.368 µM.

For the molecule `COCCOC[C@@H](NC(=O)N1CCc2cnc(NC(C)C)nc2C1)c1ccc(F)c(Cl)c1`, the concentration for half-maximal inhibition (IC50) in data set [1] came to 0.122 µM; in data set [2], 2.11 µM.

For `CC(C)Nc1ncc2c(n1)CN(C(=O)N[C@H](CNCCO)c1ccc(F)c(Cl)c1)CC2`, the IC50 worked out at 0.008 µM in data set [1] and 2.76 µM in data set [2].

As to `CCNc1ncc2c(n1)CN(C(=O)N[C@H](CO)c1ccc(F)c(Cl)c1)CC2`, the IC50 in data set [1] is 0.02 µM; in data set [2], 0.753 µM.

Regarding `C[C@@H](CO)Nc1ncc2c(n1)CN(C(=O)N[C@H](C)c1ccc(C(F)(F)F)c(F)c1)CC2`, the figures for the IC50 in data set [1], in data set [2] and in data set [3] were 0.003 µM, 0.11 µM and 0.821 µM, respectively. The fraction unbound in data set [4] was 0.013.

For the molecule `CC(C)Nc1ncc2c(n1)CN(C(=O)NCc1ccc(F)c(Cl)c1)CC2`, the IC50 was 0.066 µM in data set [1] and 1.22 µM in data set [2].

For the molecule `O=C(N[C@H](CO)c1ccc(F)c(Cl)c1)N1CCc2cnc(Nc3ccc(F)cc3)nc2C1`, the IC50 in data set [1] was determined as 0.003 µM; in data set [2] it was 0.348 µM.

Take `CC(C)Nc1ncc2c(n1)CN(C(=O)N[C@@H](c1ccc(F)c(Cl)c1)[C@H](C)O)CC2`: the figures for the IC50 in data set [1] and in data set [2] were 0.006 µM and 0.2 µM, respectively.

`CC[C@@H](NC(=O)N1CCc2cnc(NC3CCOCC3)nc2C1)c1ccc(C#N)c(Cl)c1`: the IC50 in data set [1] was 0.001 µM; in data set [2] it was 0.004 µM; in data set [3], 0.002 µM.
